From US5464617A, “β-lactam compounds” (Hoffmann-La Roche Inc., priority 1994, dated 1995)
≈ marks a conversion by molar mass, not a printed value. Counter-ions that a name gives are not always drawn.

Key:
E. coli 1346 = experiment: Antibacterial activity of the products per se, serial dilution method in liquid medium (Test E); assay type: cell-based; conditions: product per se; for MIC E. coli 1346: Table 3, liquid medium; for MIC E. coli 1346 (E): test E
Text: The antibacterial activity of the products per se is illustrated on the basis of Table 3 hereinafter, the minimum inhibitory concentration […] in vitro against E. coli 1346 being determined using the serial dilution method in liquid medium: […]

[1] = test system: Citrobacter freundii 1982; experiment: MIC in vitro of a 1:4 combination of ceftriaxone with a compound of formula I (Test D); assay type: cell-based; conditions: for MIC C. freundii 1982: Table 2; for MIC C. freundii 1982 (D): test D
Protocol: The minimum inhibitory concentration in vitro ([…]) of a 1:4 combination of ceftriaxone with a compound of formula I against Citrobacter freundii 1982 was measured and compiled in Table 2 hereinafter.

[2] = 1:4 combination of ceftriaxone with the compound
[3] = Table 4, 1:4 combination of ceftriaxone with the compound

MIC E. coli 1346 (E) (E. coli 1346; Table 4)	MIC C. freundii 1982 (D) [1, 3]	SMILES	other results
		COC(=O)CC1=C(C(=O)O)N2C(=O)[C@H]3NC[C@@H](C1)[C@H]32 [Example 12(b), (1aS,3aR,6bR)-5-Methoxycarbonylmethyl-1-oxo-1a,2,3,3a,4,6b-hexahydro-1H-2,6a-diazacyclobut[cd]indene-6-carboxylic acid trifluoroacetate]	MIC E. coli 1346 (E. coli 1346): 8 µg/mL; MIC C. freundii 1982 [1, 2]: 4 µg/mL
		NC(=O)OCC1=C(C(=O)O)N2C(=O)[C@@H]3[C@H]2[C@H](C1)CN3C(=O)C(F)(F)F [58(d), (1aS,3aR,6bR)-5-Carbamoyloxymethyl-1-oxo-2-trifluoroacetyl-1a,2,3,3a,4,6b-hexahydro-1H-2,6a-diazacyclobut[cd]indene-6-carboxylic acid sodium salt]	MIC E. coli 1346 (E) (E. coli 1346; Table 5, particularly preferred products): 1 µg/mL; MIC C. freundii 1982 (D) ([1]; Table 5, particularly preferred products, 1:4 combination with ceftriaxone): 0.5 µg/mL
8 µg/mL	4 µg/mL	CC(=O)N1C[C@H]2CC(CSc3cc[n+](CC(=O)[O-])cc3)=C(C(=O)O)N3C(=O)[C@@H]1[C@@H]23 [52(a), (1aS,3aR,6bR)-[4-(2-Acetyl-6-carboxy-1-oxo-1a,2,3,3a,4,6b-hexahydro-1H-2,6a-diaza-cyclobut[cd]inden-5-yl-methylsulphanyl)-pyridinio]-acetate bromoacetate (1:3.18) sodium salt (1:4.18)]	
32 µg/mL (≈ 74.2 µM)	32 µg/mL	Cn1nc[n+](C)c1CSC1=C(C(=O)[O-])N2C(=O)[C@@H]3[C@H]2[C@H](C1)CN3C(=O)C(F)(F)F [3(an), (1aS,3aR,6bR)-5-[(1,4-Dimethyl-1H-1,2,4-triazol-5-ylio)methylsulphanyl]-1-oxo-2-trifluoroacetyl-1a,2,3,3a,4,6b-hexahydro-1H-2,6a-diazacyclobut[cd]indene-6-carboxylate]	
2 µg/mL	0.25 µg/mL	Cn1nnnc1SCC1=C(C(=O)O)N2C(=O)[C@@H]3[C@H]2[C@H](C1)CN3C(=O)CC#N [Example 19(d), (1aS,3aR,6bR)-2-Cyanoacetyl-5-(1-methyl-1H-tetrazol-5-ylsulphanylmethyl)-1-oxo-1a,2,3,3a,4,6b-hexahydro-1H-2,6a-diazacyclobut[cd]indene-6-carboxylic acid sodium salt]	
4 µg/mL (≈ 10.7 µM)	2 µg/mL	O=C([O-])C[n+]1ccc(SCC2=C(C(=O)O)N3C(=O)[C@H]4NC[C@@H](C2)[C@H]43)cc1 [Example 50, (1aS,3aR,6bR)-[4-(6-Carboxy-1-oxo-1a,2,3,3a,4,6b-hexahydro-1H-2,6a-diazacyclobut[cd]indene-5-ylmethylsulphanyl)-pyridin-1-ylio]acetatetrifluoroacetate]	
32 µg/mL	4 µg/mL	CSc1nnnn1CC1=C(C(=O)O)N2C(=O)[C@H]3NC[C@@H](S1)[C@H]32 [Example 44, (1aS,3aR,6bS)-5-(5-Methylsulphanyl-1H-tetrazol-1-ylmethyl)-1-oxo-1,1a,2,3,3a,6b-hexahydro-4-thia-2,6a-diazacyclobut[cd]indene-6-carboxylic acid sodium salt]	
		CS(=O)(=O)OC1=C(C(=O)O)N2C(=O)[C@H]3NC[C@@H](C1)[C@H]32 [Example 8, (1aS,3aR,6bR)-5-Methylsulphonyloxy-1-oxo-1a,2,3,3a,4,6b-hexahydro-1H-2,6a-diazacyclobut[cd]indene-6-carboxylic acid trifluoroacetate]	MIC E. coli 1346 (E. coli 1346): 2 µg/mL; MIC C. freundii 1982 [1, 2]: 1 µg/mL
4 µg/mL	1 µg/mL	CNC(=O)OCC1=C(C(=O)O)N2C(=O)[C@H]3NC[C@@H](C1)[C@H]32 [Example 97, (1aS,3aR,6bR)-5-Methylcarbamoyloxymethyl-1-oxo-1a,2,3,3a,4,6b-hexahydro-1H-2,6a-diazacyclobut[cd]indene-6-carboxylic acid trifluoroacetate]	
4 µg/mL	1 µg/mL	O=C(O)C1=C(CSc2nc[nH]n2)C[C@@H]2CN[C@@H]3C(=O)N1[C@H]23 [Example 75, (1aS,3aR,6 bR)-1-Oxo-5-(1H-1,2,4-triazol-3-ylsulphanylmethyl)-1a,2,3,3a,4,6b-hexahydro-1H-2,6a-diazacyclobut[cd]indene-6-carboxylic acid trifluoroacetate]	
4 µg/mL	8 µg/mL	O=C(O)C1=C(CSc2nc(-c3cccnc3)cs2)C[C@@H]2CN(C(=O)C(F)(F)F)[C@@H]3C(=O)N1[C@H]23 [67(b), (1aS,3aR,6bR)-1-Oxo-5-(4-pyridin-3-yl-thiazol-2-ylsulphanylmethyl)-2-trifluoroacetyl-la,2,3,3a,4,6b-hexahydro-1H-2,6a-diazacyclobut[cd]indene-6-carboxylic acid sodium salt]	
8 µg/mL	2 µg/mL	NC(=O)Cn1nnnc1SCC1=C(C(=O)O)N2C(=O)[C@@H]3[C@H]2[C@@H](CN3C(=O)C(F)(F)F)O1 [Example 39, (1aS,3aR,6bS)-5-(1-Carbamoylmethyl-1H-tetrazol-5-ylsulphanylmethyl)-1-oxo-2-trifluoroacetyl-1,1a,2,3,3a,6b-hexahydro-4-oxa-2,6a-diazacyclobut[cd]indene-6-carboxylic acid sodium salt]	
2 µg/mL	2 µg/mL	O=C(Cn1nnnc1SCC1=C(C(=O)O)N2C(=O)[C@H]3NC[C@@H](C1)[C@H]32)Nc1ccc(O)cc1 [Example 77, (1aS,3aR,6bR)-5-[1-(4-Hydroxy-phenylcarbamoylmethyl)-1H-tetrazol-5-ylsulphanylmethyl]-1-oxo-1a,2,3,3a,4,6b-hexahydro-1H-2,6a-diazacyclobut[cd]indene-6-carboxylic acid trifluoroacetate]	
		CS(=O)(=O)OC1=C(C(=O)O)N2C(=O)[C@@H]3[C@H]2[C@H](C1)CN3C(=O)NCc1ccc(O)c(O)c1 [9(d), (1aS,3aR,6bR)-2-(3,4-Dihydroxy-benzylcarbamoyl)-5-methylsulphonyloxy-1-oxo-1a,2,3,3a,4,6b-hexahydro-1H-2,6a-diazacyclobut[cd]indene-6-carboxylic acid sodium salt]	MIC E. coli 1346 (E. coli 1346): 32 µg/mL; MIC C. freundii 1982 [1, 2]: 2 µg/mL
> 32 µg/mL	2 µg/mL	CO/N=C(\C(=O)N1C[C@H]2CC(COC(N)=O)=C(C(=O)O)N3C(=O)[C@@H]1[C@@H]23)c1csc(N)n1 [Example 60, (Z)-(1aS,3aR,6bR)-2-[(2-Amino-thiazol-4-yl)-methoxyimino-acetyl]-5-carbamoyloxymethyl-1-oxo-1a,2,3,3a,4,6b-hexahydro-1H-2,6a-diazacyclobut[cd]indene-6-carboxylic acid]	
8 µg/mL	4 µg/mL	C=CC1=C(C(=O)O)N2C(=O)[C@@H]3[C@H]2[C@H](C1)CN3C(C)=O [Example 47, (1aS,3aR, 6bR)-2-Acetyl-1-oxo-5-vinyl-1a,2,3,3a,4,6b-hexahydro-1H-2,6a-diazacyclobut[cd]indene-6-carboxylic acid sodium salt]	
8 µg/mL (≈ 18.9 µM)	8 µg/mL	NC(=O)CNC(=O)Cn1nnnc1SCC1=C(C(=O)O)N2C(=O)[C@H]3NC[C@@H](O1)[C@H]32 [29(i), (1aS,3aR,6bS)-5-(1-(Carbamoylmethyl-carbamoylmethyl)-1H-tetrazol-5-ylsulphanylmethyl)-1-oxo-1,1a,2,3,3a,6b-hexahydro-4-oxa-2,6a-diazacyclobut[cd]indene-6-carboxylic acid]	
8 µg/mL (≈ 16.1 µM)	1 µg/mL	Cc1nnc(SCC2=C(C(=O)O)N3C(=O)[C@@H]4[C@H]3[C@@H](CN4C(=O)CSc3nnnn3C)O2)s1 [Example 34, (1aS,3aR,6bS)-2-(1-Methyl-1H-tetrazol-5-ylsulphanylacetyl)-5-(5-methyl-1,3,4-thiadiazol-2-ylsulphanylmethyl)-1-oxo-1,1a,2,3,3a,6b-hexahydro-4-oxa-2,6a-diazacyclobut[cd]indene-6-carboxylic acid]	
4 µg/mL	2 µg/mL	O=C(NCC(F)(F)F)OCC1=C(C(=O)O)N2C(=O)[C@H]3NC[C@@H](C1)[C@H]32 [Example 91, (1aS,3aR,6bR)-1-Oxo-5-(2,2,2-trifluoroethylcarbamoyloxymethyl)-1a,2,3,3a,4,6b-hexahydro-1H-2,6a-diazacyclobut[cd]indene-6-carboxylic acid trifluoroacetate]	
16 µg/mL	16 µg/mL	CC(=O)N1C[C@H]2OC(CSc3nnnn3CC(=O)NC3CC3)=C(C(=O)O)N3C(=O)[C@@H]1[C@@H]23 [32(d), (1a-S,3aR,6bS)-2-Acetyl-5-(1-cyclopropylcarbamoylmethyl-1H-tetrazol-5-ylsulphanylmethyl)-1-oxo-1,1a,2,3,3a,6b-hexahydro-4-oxa-2,6a-diazacyclobut[cd]indene-6-carboxylic acid sodium salt]	

SMILES	MIC E. coli 1346 (E) (E. coli 1346; Table 4)	MIC C. freundii 1982 (D) [1, 3]	other results
CC(C)(C)OC(=O)CCNC(=O)N1C[C@H]2CC(C[n+]3ccccc3)=C(C(=O)[O-])N3C(=O)[C@@H]1[C@@H]23 [23(f), (1aS,3aR,6bR)-2-(2-t-Butoxycarbonyl-ethylcarbamoyl)-1-oxo-5-(pyridin-1-yliomethyl)-1a,2,3,3a,4,6b-hexahydro-1H-2,6a-diazacyclobut[cd]indene-6-carboxylate]	> 32 µg/mL	4 µg/mL	
Cn1nnnc1SCC1=C(C(=O)O)N2C(=O)[C@@H]3[C@H]2[C@H](C1)CN3C(=O)NCCC(=O)OC(C)(C)C [18(f), (1aS,3aR,6bR)-2-(2-t-Butoxycarbonyl-ethylcarbarmoyl)-5-(1-methyl-1H-tetrazol-5-ylsulphanylmethyl)-1-oxo-1a,2,3,3a,4,6b-hexahydro-1H-2,6a-diazacyclobut[cd]indene-6-carboxylic acid sodium salt]	4 µg/mL	1 µg/mL	
